According to patent publication US6639058B2, “Method of dissolving preformed β-amyloid peptide fibrils in vitro by poly-lysine” (priority 2001, dated 2003):

Legend:
preformed βA1-40 fibrils = target: T1, preformed βA1-40 fibrils (Homo sapiens, UniProt P05067); assay: Electron microscopy analysis of the ability to dissolve preformed βA fibrils in vitro (βA1-40); format: biochemical; conditions: data not shown
T1 construct: 1.5 mg/ml for both βA1-40 and βA1-42
Experimental: (§1) Aliquots of βA at a concentration of 1.5 mg/ml for both βA1-40 and βA1-42 and 0.5 mg/ml for βA25-35 prepared in water or in PBS, were incubated for 5 days at 37° C. At the end of the incubation period, 10 μl of βA solution were mixed with 10 μl of water for negative-staining electron microscopy analysis.
(§2) All compounds used to test the ability to dissolve preformed βA fibrils in vitro: Poly-L-Lysine, Polyethylene glycol and L-Lysine, were prepared in water and at a concentration of 25 mg/ml, 10 mg/ml and 1 M respectively. Then, 10 μl of tested compound were mixed with 10 μl of water for negative-staining electron microscopy analysis.
(§3) In order to evaluate the ability of compounds to dissolve preformed βA fibrils in vitro, 10 μl of tested compound were mixed with 10 μl of preformed βA fibrils and the negative-staining electron microscopy analysis was immediately performed.
(§4) Samples of tested compound, βA with or without tested compound were placed on carbon formar-coated 200-mesh nickel grids. The grids were stained for 5 minutes with 1% phosphotungstic acid and visualized on a Philips EM 401 electron microscope at 80 kV.

[1] = target: T2, preformed βA25-35 fibrils (Homo sapiens, UniProt P05067); assay: Electron microscopy analysis of the ability to dissolve preformed βA fibrils in vitro (βA25-35); format: biochemical; conditions: for ability to dissolve preformed βA25-35 fibrils: 10 μl tested compound mixed with 10 μl preformed fibrils, negative-staining electron microscopy immediately performed, Poly-L-Lysine 25 mg/ml, Polyethylene glycol 10 mg/ml, L-Lysine 1 M
T2 construct: 0.5 mg/ml for βA25-35 prepared in water or in PBS
Experimental: as §1, §2, §3, §4

T1 sequence (P05067 672-711): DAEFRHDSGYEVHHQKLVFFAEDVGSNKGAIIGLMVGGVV

Poly-L-Lysine, hydrobomide
potential to dissolve preformed βA1-40 fibrils (preformed βA1-40 fibrils): also observed
ability to dissolve preformed βA25-35 fibrils [1]: completely dissolved
speed of efficiency in dissolving preformed βA fibrils ([1]; in vitro, electron microscopy immediately after mixing): instantaneous

Cl.NCCCC[C@H](N)C(=O)O [L-Lysine, L-Lysine, monohydrochloride, reference compound]
ability to dissolve preformed βA25-35 fibrils [1]: not effective
